Data on 25 molecules can be found in ChEMBL document CHEMBL4339220, “Scaffold Morphing Approach To Expand the Toolbox of Broad-Spectrum Antivirals Blocking Dengue/Zika Replication” (ACS Med Chem Lett, 2019).

Some results are limits rather than exact numbers.

Data set [1] relates to dengue virus type 2. The experiment in a line: Antiviral activity against Dengue virus type 2 NGC infected in African green monkey Vero B cells assessed as reduction in virus yield. The format is functional, organism-based, Thailand/NGS-C/1944.
Data set [2] is described as follows: Cytotoxicity in African green monkey Vero B cells assessed as reduction in cell viability by MTS assay. The format is cell-based. As to conditions: chlorocebus aethiops; call rule not given here. On the technique in general: Tetrazolium dyes change colour on reduction, which living cells bring about.
Data set [3] in a line: Selectivity index, ratio of CC50 for African green monkey Vero B cells to EC50 for Dengue virus type 2 NGC infected in African green monkey Vero B cells. The format is toxicity. Conditions: read-out: Ratio CC50/EC50.
Data set [4] relates to Zika virus. The experiment in a line: Antiviral activity against Zika virus MR766 infected in African green monkey Vero E6 cells assessed as reduction in virus yield. The format is functional, organism-based. Conditions: MR766, Vero C1008.
The nature of data set [5]: Cytotoxicity in African green monkey Vero E6 cells assessed as reduction in cell viability by MTS assay. The format is cell-based. As to conditions: chlorocebus sabaeus, Vero E6 cells (Vero C1008).
In another data set the test system is Dengue virus. In words: Antiviral activity against Dengue virus. The format is functional, organism-based.
Data set [6] has as its system Zika virus. The experiment in a line: Antiviral activity against Zika virus. The format is functional, organism-based.
Data set [7] in a line: Selectivity index, ratio of CC50 for African green monkey Vero E6 cells to EC50 for Zika virus MR766 infected in African green monkey Vero E6 cells. The format is toxicity, Vero C1008. Conditions: read-out: Ratio CC50/EC50.
The subject of data set [8] is dengue virus type 2. In words: Potency index, ratio of EC50 for RBV to EC50 for test compound for antiviral activity against Dengue virus type 2 NGC infected in African green monkey Vero B cells assessed as reduction in virus yield. The format is functional, Thailand/NGS-C/1944.
The test system of data set [9] is Zika virus. The experiment in a line: Potency index, ratio of EC50 for 7DMA to EC50 for test compound for antiviral activity against Zika virus MR766 infected in African green monkey Vero E6 cells assessed as reduction in virus yield. The format is functional, Vero C1008.
Setting [10] is: Dengue virus, Thailand/NGS-C/1944, Vero B, read-out: EC50.

What is called EC50 is the midpoint of the concentration-response curve. Usually CC50 stands for the concentration at which the toxic effect on the cells reaches its halfway point. With `O=C1c2nc(N3CCOCC3)nc(Nc3cccc(O)c3)c2CN1Cc1ccccc1`, the EC50 in the data set on dengue virus type 2 [1] (setting [10]) turned out to be 100 µM. Further, the CC50 in data set [2] was above 120 µM.
The like results for `NS(=O)(=O)c1ccc(Nc2nc(N3CCOCC3)nc3c2COC3=O)cc1` were, in that order, above 128 µM and above 128 µM.
Regarding `O=C(NCCOc1ccccc1)c1nc(N2CCOCC2)nc(Nc2cccc(O)c2)c1CO`, in the data set on dengue virus type 2 [1] (setting [10]), the EC50 was determined as 62.1 µM. The CC50 in [2] was found to be 73.3 µM. Further, in data set [3], the selectivity ratio amounted to 1.2.
`NS(=O)(=O)c1ccc(Nc2nc(N3CCOCC3)nc3c2CN(CCOc2ccccc2)C3=O)cc1`: the EC50 was 12.2 µM in the data set with dengue virus type 2 [1] (setting [10]) and above 97.9 µM with Zika virus [4]. Besides, the half-maximal cytotoxic concentration (CC50) in data set [2] and in data set [5] was above 97.9 µM throughout. Also, the selectivity ratio in data set [3] was above 8.
For `NS(=O)(=O)c1ccc(Nc2nc(N3CCOCC3)nc3c2CN(Cc2ccccc2)C3=O)cc1`, the EC50 was 21.6 µM in the data set with dengue virus type 2 [1] (setting [10]) and above 104 µM in the data set on Zika virus [4]. Besides, the half-maximal cytotoxic concentration (CC50) in data set [2] and in data set [5] was above 104 µM throughout. Besides, the selectivity ratio in data set [3] was above 4.8.
Turning to `O=C(NCc1ccccc1)c1nc(N2CCOCC2)nc(Nc2cccc(O)c2)c1CO`, in the data set on dengue virus type 2 [1] (setting [10]), the concentration for a half-maximal effect (EC50) was above 115 µM. Besides, the CC50 in data set [2] was above 115 µM.
As to `CCCCCOCc1c(Nc2ccc(S(N)(=O)=O)cc2)nc(N2CCOCC2)nc1C(=O)NCc1ccccc1`, the EC50 is 1 µM in the data set on dengue virus type 2 [1] (setting [10]) and above 87.9 µM in the data set on Zika virus [4]. Moreover, the CC50 in [2] and in data set [5] was above 87.9 µM throughout. Moreover, the selectivity ratio in data set [3] was above 88.
Take `Oc1cccc(Nc2nc(N3CCOCC3)nc3[nH]cnc23)c1`: the EC50 in the data set with Dengue virus and with dengue virus type 2 [1] (setting [10]) was 40.6 µM in each case. The CC50 in data set [2] stood at 122 µM. Moreover, in [3], the selectivity ratio was 3.
As for `C[C@@]1(O)[C@H](O)[C@@H](CO)O[C@H]1n1ccc2c(N)ncnc21` [BETA-2'-C-METHYL-7-DEAZA-ADENOSINE], the concentration giving a half-maximal response (EC50) in the data set with Zika virus [4] turned out to be 5.7 µM; with Zika virus [6], 9.6 µM. Besides, the 50% cytotoxic concentration (CC50) in [5] was above 357 µM. In addition, in [7], the selectivity ratio was above 64.
In the case of `NS(=O)(=O)c1ccc(Nc2nc(N3CCOCC3)nc3[nH]cnc23)cc1`, the EC50 entry in the data set with dengue virus type 2 [1] is recorded as “Not Active”. Further, the half-maximal cytotoxic concentration (CC50) in data set [2] was determined as 373 µM.
With `CCCCCOCc1c(Nc2ccc(S(N)(=O)=O)cc2)nc(N2CCOCC2)nc1C(=O)NCc1ccc(OC)cc1`, the EC50 in the data set on dengue virus type 2 [1] (setting [10]) was above 83.5 µM. Also, the CC50 in [2] was above 83.5 µM.
As to `CCCCCOCc1c(Nc2ccc(S(N)(=O)=O)cc2)nc(N2CCOCC2)nc1C(=O)NCCOc1ccccc1`, the concentration for a half-maximal effect (EC50) is 1.82 µM in the data set with dengue virus type 2 [1] (setting [10]) and 2.04 µM in the data set with Zika virus [4]. In addition, the “Ratio EC50” value was determined as 6 in the data set with dengue virus type 2 [8] and 3 in the data set on Zika virus [9]. Further, the cytotoxic concentration (CC50) in data set [2] and in data set [5] was above 83.5 µM throughout. Also, the selectivity ratio in data set [3] was above 46; in data set [7], above 41.
As for `O=C1c2nc(N3CCOCC3)nc(Nc3cccc(O)c3)c2CN1CCc1ccccc1`, the EC50 in the data set on dengue virus type 2 [1] (setting [10]) was found to be 70.7 µM. Also, in data set [2], the CC50 is above 116 µM.
Regarding `Oc1cccc(Nc2nc(NCCOc3ccccc3)nc3[nH]cnc23)c1`, the EC50 in the data set on Dengue virus is 10 µM; with dengue virus type 2 [1] (setting [10]), 10 µM; in the data set on Zika virus [4] it was 16.7 µM; in the data set with Zika virus [6], 16.7 µM. For the same molecule, the results for the CC50 in data set [2] and in data set [5] were 69.4 µM and above 124 µM, respectively. Moreover, the selectivity ratio in data set [3] is 6.9; in data set [7], above 7.4.
On to `O=C(NCCc1ccccc1)c1nc(N2CCOCC2)nc(Nc2cccc(O)c2)c1CO`, for which the EC50 with dengue virus type 2 [1] (setting [10]) came to 20.7 µM. Moreover, the CC50 in data set [2] came to 64.5 µM. The selectivity ratio in data set [3] was found to be 3.1.
In the case of `COc1ccc(CN2Cc3c(Nc4ccc(S(N)(=O)=O)cc4)nc(N4CCOCC4)nc3C2=O)cc1`, the EC50 with dengue virus type 2 [1] (setting [10]) is above 97.9 µM. In addition, the CC50 in data set [2] was above 97.9 µM.
`NC(=O)c1ncn([C@@H]2O[C@H](CO)[C@@H](O)[C@H]2O)n1` [RIBAVIRIN]: the values for the concentration for a half-maximal effect (EC50) in the data set on Dengue virus, in the data set with dengue virus type 2 [1] (setting [10]) and in the data set with Zika virus [6] were 11.9 µM, 11.9 µM and 12 µM, respectively. In data set [2], the 50% cytotoxic concentration (CC50) was above 409 µM. For the same molecule, in [3], the selectivity ratio was above 34.
Consider `OCCNc1nc(Nc2cccc(O)c2)c2nc[nH]c2n1`, for which, in the data set with dengue virus type 2 [1] (setting [10]), the EC50 worked out at 7.4 µM. Besides, the CC50 in [2] was above 175 µM. For the same molecule, the selectivity ratio in data set [3] was above 24.
In the case of `CCCCCOCc1c(Nc2cccc(O)c2)nc(N2CCOCC2)nc1C(=O)NCc1ccc(C(F)(F)F)cc1`, the EC50 with dengue virus type 2 [1] (setting [10]) was determined as 10.9 µM; in the data set with Zika virus [4], 13.9 µM. The half-maximal cytotoxic concentration (CC50) in [2] came out at 32.8 µM; in data set [5] it was 48.2 µM. In addition, the selectivity ratio came to 3 in data set [3] and 3.5 in data set [7].
Take `O=C1OCc2c(Nc3cccc(O)c3)nc(N3CCOCC3)nc21`: the EC50 in the data set on dengue virus type 2 [1] (setting [10]) is above 128 µM. Moreover, in [2], the CC50 is above 128 µM.
In the case of `CCCCCOCc1c(Nc2cccc(O)c2)nc(N2CCOCC2)nc1C(=O)NCc1ccccc1`, the EC50 in the data set on dengue virus type 2 [1] (setting [10]) came out at 20.7 µM; in the data set with Zika virus [4], 57.8 µM. The results for the CC50 in [2] and in data set [5] were 39.4 µM and above 98.9 µM, respectively. The selectivity ratio in data set [3] is 1.9; in data set [7] it was above 1.7.
For `COc1ccc(CN2Cc3c(Nc4cccc(O)c4)nc(N4CCOCC4)nc3C2=O)cc1`, the EC50 in the data set with dengue virus type 2 [1] (setting [10]) is above 112 µM. In data set [2], the CC50 was above 112 µM.
As for `COc1ccc(CNC(=O)c2nc(N3CCOCC3)nc(Nc3cccc(O)c3)c2CO)cc1`, the EC50 in the data set with dengue virus type 2 [1] (setting [10]) is above 107 µM. For the same molecule, in data set [2], the cytotoxic concentration (CC50) is above 107 µM.
As for `O=C1c2nc(N3CCOCC3)nc(Nc3cccc(O)c3)c2CN1CCOc1ccccc1`, in the data set on dengue virus type 2 [1] (setting [10]), the EC50 stood at 20.6 µM. Also, the CC50 in data set [2] is above 100 µM. For the same molecule, the selectivity ratio in data set [3] was above 4.9.
As to `NS(=O)(=O)c1ccc(Nc2nc(N3CCOCC3)nc(C(=O)NCc3ccccc3)c2CO)cc1`, the EC50 in the data set with dengue virus type 2 [1] (setting [10]) is above 100 µM. Further, the 50% cytotoxic concentration (CC50) in data set [2] was above 100 µM.
